Experimental data taken from US20230398130A1, “METHODS AND COMPOSITIONS FOR DIFFERENTIATING STEM CELLS” (Massachusetts Institute of Technology, priority 2020, published 2023).

Columns and labels:
ISC-enriched organoids [1] = assay: Primary screen, 384-well 2.5-D organoid differentiation (ENR+CD, 6 days): carbachol-induced lysozyme secretion (LYZ.S); format: cell-based, murine; settings: primary screen; for Dose.FC.LYZ.S: FC vs plate median; for Z.LYZ.S: standard z score; for SSMD.LYZ.S: strictly standardized mean difference
Description: (§1) High-throughput screening.

ISC-enriched organoids [2] = assay: Primary screen, 384-well 2.5-D organoid differentiation (ENR+CD, 6 days): basal lysozyme secretion (LYZ.NS); format: cell-based, murine; settings: primary screen; for Dose.FC.LYZ.NS: FC vs plate median; for Z.LYZ.NS: standard z score; for SSMD.LYZ.NS: strictly standardized mean difference
Description: as §1

ISC-enriched organoids [3] = assay: Primary screen, 384-well 2.5-D organoid differentiation (ENR+CD, 6 days, Target Selective Inhibitor Library, vs whole-plate median): ATP (CellTiter-Glo 3D, CTG); settings: primary screen; for Dose.FC.CTG: FC vs plate median; for Z.CTG: standard z score; for SSMD.CTG: strictly standardized mean difference
[4] = 1st of the 4 dose lines of the treatment (dose not given)
[5] = 2nd of the 4 dose lines of the treatment (dose not given)
[6] = 3rd of the 4 dose lines of the treatment (dose not given)
[7] = 4th of the 4 dose lines of the treatment (dose not given)

In the case of `O=C(c1ccc(Nc2nccc(-c3cc4ccccc4s3)n2)cc1)N1CCC(N2CCCC2)CC1` [IKK-16 (IKK Inhibitor VII)], the Dose.FC.LYZ.S (ISC-enriched organoids [1]; Dose 0.08 uM) is reported as 0.092 log 2 fold change, the Dose.FC.LYZ.S (ISC-enriched organoids [1]; Dose 0.40 uM) is reported as 0.028 log 2 fold change and the Dose.FC.LYZ.S (ISC-enriched organoids [1]; Dose 2.00 uM) is reported as −0.142 log 2 fold change. The Dose.FC.LYZ.S (ISC-enriched organoids [1]; Dose 10.00 uM) was −0.383 log 2 fold change, the Z.LYZ.S (ISC-enriched organoids [1]; [4]) was 0.593 and the Z.LYZ.S (ISC-enriched organoids [1]; [5]) was 0.179. The Z.LYZ.S (ISC-enriched organoids [1]; [6]) was −0.918, the Z.LYZ.S (ISC-enriched organoids [1]; [7]) was −2.475 and the SSMD.LYZ.S (ISC-enriched organoids [1]; [4]) was 0.496. The SSMD.LYZ.S (ISC-enriched organoids [1]; [5]) was 0.203, the SSMD.LYZ.S (ISC-enriched organoids [1]; [6]) was −0.698 and the SSMD.LYZ.S (ISC-enriched organoids [1]; [7]) was −1.351. The Dose.FC.LYZ.NS (ISC-enriched organoids [2]; Dose 0.08 uM) was 0.104 log 2 fold change, the Z.LYZ.NS (ISC-enriched organoids [2]; Dose 0.08 uM) was 0.903 and the Dose.FC.LYZ.NS (ISC-enriched organoids [2]; Dose 0.40 uM) was 0.020 log 2 fold change. The Z.LYZ.NS (ISC-enriched organoids [2]; Dose 0.40 uM) was 0.176, the Dose.FC.LYZ.NS (ISC-enriched organoids [2]; Dose 2.00 uM) was −0.081 log 2 fold change and the Z.LYZ.NS (ISC-enriched organoids [2]; Dose 2.00 uM) was −0.708. The Dose.FC.LYZ.NS (ISC-enriched organoids [2]; Dose 10.00 uM) was −0.291 log 2 fold change, the Z.LYZ.NS (ISC-enriched organoids [2]; Dose 10.00 uM) was −2.531 and the SSMD.LYZ.NS (ISC-enriched organoids [2]; [4]) was 0.817. For the same molecule, the SSMD.LYZ.NS (ISC-enriched organoids [2]; [5]) was 0.207, the SSMD.LYZ.NS (ISC-enriched organoids [2]; [6]) was −0.481 and the SSMD.LYZ.NS (ISC-enriched organoids [2]; [7]) was −2.119. It also gave a Dose.FC.CTG (ISC-enriched organoids [3]; Dose 0.08 uM) of 0.058 log 2 fold change, a Z.CTG (ISC-enriched organoids [3]; Dose 0.08 uM) of 0.139 and a Dose.FC.CTG (ISC-enriched organoids [3]; Dose 0.40 uM) of −0.051 log 2 fold change. It also gave a Z.CTG (ISC-enriched organoids [3]; Dose 0.40 uM) of −0.122, a Dose.FC.CTG (ISC-enriched organoids [3]; Dose 2.00 uM) of −0.431 log 2 fold change and a Z.CTG (ISC-enriched organoids [3]; Dose 2.00 uM) of −1.029. The Dose.FC.CTG (ISC-enriched organoids [3]; Dose 10.00 uM) was −0.950 log 2 fold change, the Z.CTG (ISC-enriched organoids [3]; Dose 10.00 uM) was −2.268 and the SSMD.CTG (ISC-enriched organoids [3]; [4]) was 0.131. It also gave an SSMD.CTG (ISC-enriched organoids [3]; [5]) of −0.190, an SSMD.CTG (ISC-enriched organoids [3]; [6]) of −0.877 and an SSMD.CTG (ISC-enriched organoids [3]; [7]) of −1.581.
Work on `O=C(Nc1cc(C(F)(F)F)cc(C(F)(F)F)c1)c1cc(Cl)ccc1O` [IMD 0354] yielded a Dose.FC.LYZ.S (ISC-enriched organoids [1]; Dose 0.08 uM) of −0.047 log 2 fold change, a Dose.FC.LYZ.S (ISC-enriched organoids [1]; Dose 0.40 uM) of 0.043 log 2 fold change and a Dose.FC.LYZ.S (ISC-enriched organoids [1]; Dose 2.00 uM) of 0.083 log 2 fold change. For the same molecule, the Dose.FC.LYZ.S (ISC-enriched organoids [1]; Dose 10.00 uM) was −0.128 log 2 fold change, the Z.LYZ.S (ISC-enriched organoids [1]; [4]) was −0.303 and the Z.LYZ.S (ISC-enriched organoids [1]; [5]) was 0.281. For the same molecule, the Z.LYZ.S (ISC-enriched organoids [1]; [6]) was 0.534, the Z.LYZ.S (ISC-enriched organoids [1]; [7]) was −0.826 and the SSMD.LYZ.S (ISC-enriched organoids [1]; [4]) was −0.335. The SSMD.LYZ.S (ISC-enriched organoids [1]; [5]) was 0.203, the SSMD.LYZ.S (ISC-enriched organoids [1]; [6]) was 0.537 and the SSMD.LYZ.S (ISC-enriched organoids [1]; [7]) was −0.736. It also gave a Dose.FC.LYZ.NS (ISC-enriched organoids [2]; Dose 0.08 uM) of 0.004 log 2 fold change, a Z.LYZ.NS (ISC-enriched organoids [2]; Dose 0.08 uM) of 0.035 and a Dose.FC.LYZ.NS (ISC-enriched organoids [2]; Dose 0.40 uM) of 0.101 log 2 fold change. For the same molecule, the Z.LYZ.NS (ISC-enriched organoids [2]; Dose 0.40 uM) was 0.880, the Dose.FC.LYZ.NS (ISC-enriched organoids [2]; Dose 2.00 uM) was 0.097 log 2 fold change and the Z.LYZ.NS (ISC-enriched organoids [2]; Dose 2.00 uM) was 0.847. It also gave a Dose.FC.LYZ.NS (ISC-enriched organoids [2]; Dose 10.00 uM) of −0.089 log 2 fold change, a Z.LYZ.NS (ISC-enriched organoids [2]; Dose 10.00 uM) of −0.777 and an SSMD.LYZ.NS (ISC-enriched organoids [2]; [4]) of 0.021. The SSMD.LYZ.NS (ISC-enriched organoids [2]; [5]) was 0.439, the SSMD.LYZ.NS (ISC-enriched organoids [2]; [6]) was 0.612 and the SSMD.LYZ.NS (ISC-enriched organoids [2]; [7]) was −0.729. For the same molecule, the Dose.FC.CTG (ISC-enriched organoids [3]; Dose 0.08 uM) was −0.007 log 2 fold change, the Z.CTG (ISC-enriched organoids [3]; Dose 0.08 uM) was −0.017 and the Dose.FC.CTG (ISC-enriched organoids [3]; Dose 0.40 uM) was 0.117 log 2 fold change. The Z.CTG (ISC-enriched organoids [3]; Dose 0.40 uM) was 0.280, the Dose.FC.CTG (ISC-enriched organoids [3]; Dose 2.00 uM) was 0.076 log 2 fold change and the Z.CTG (ISC-enriched organoids [3]; Dose 2.00 uM) was 0.181. For the same molecule, the Dose.FC.CTG (ISC-enriched organoids [3]; Dose 10.00 uM) was −0.480 log 2 fold change, the Z.CTG (ISC-enriched organoids [3]; Dose 10.00 uM) was −1.146 and the SSMD.CTG (ISC-enriched organoids [3]; [4]) was −0.019. It also gave an SSMD.CTG (ISC-enriched organoids [3]; [5]) of 0.258, an SSMD.CTG (ISC-enriched organoids [3]; [6]) of 0.274 and an SSMD.CTG (ISC-enriched organoids [3]; [7]) of −0.748.
